From ChEMBL document CHEMBL3792365, “Dioxol and dihydrodioxin analogs of 2- and 3-phenylacetonitriles as potent anti-cancer agents with nanomolar activity against a variety of human cancer cells” (2016)

Columns and labels:
Format in all cases: functional
[1] = Growth inhibition of human HL-60(TB) cells at 10 uM after 48 hrs by sulforhodamine B assay; conditions: HL-60, 48 h, values are per cent of control
[2] = Growth inhibition of human HOP62 cells at 10 uM after 48 hrs by sulforhodamine B assay; conditions: HOP-62, 48 h, values are per cent of control
[3] = test system: Malme-3M; test: Growth inhibition of human MALME-3M cells at 10 uM after 48 hrs by sulforhodamine B assay; conditions: values are per cent of control
[4] = test system: MDA-MB-435; test: Growth inhibition of human MDA-MB-435 cells at 10 uM after 48 hrs by sulforhodamine B assay; conditions: MDA-MB-435, 48 h, values are per cent of control
[5] = Growth inhibition of human RPMI8226 cells at 10 uM after 48 hrs by sulforhodamine B assay; conditions: RPMI-8226, 48 h, values are per cent of control
[6] = test system: KM12; test: Growth inhibition of human KM12 cells at 10 uM after 48 hrs by sulforhodamine B assay; conditions: KM12, 48 h, values are per cent of control
[7] = Growth inhibition of human HOP92 cells at 10 uM after 48 hrs by sulforhodamine B assay; conditions: HOP-92, 48 h, values are per cent of control
[8] = Growth inhibition of human UACC257 cells at 10 uM after 48 hrs by sulforhodamine B assay; conditions: UACC-257, 48 h, values are per cent of control
[9] = Growth inhibition of human OVCAR3 cells at 10 uM after 48 hrs by sulforhodamine B assay; conditions: OVCAR-3, 48 h, values are per cent of control
[10] = test system: NCI-H226; test: Growth inhibition of human NCI-H226 cells at 10 uM after 48 hrs by sulforhodamine B assay; conditions: NCI-H226, 48 h, values are per cent of control
[11] = Growth inhibition of human SNB19 cells at 10 uM after 48 hrs by sulforhodamine B assay; conditions: SNB-19, 48 h, values are per cent of control
[12] = Growth inhibition of human BT549 cells at 10 uM after 48 hrs by sulforhodamine B assay; conditions: BT-549, 48 h, values are per cent of control
[13] = test system: SR; test: Growth inhibition of human SR cells at 10 uM after 48 hrs by sulforhodamine B assay; conditions: values are per cent of control
[14] = test system: MDA-MB-468; test: Growth inhibition of human MDA-MB-468 cells at 10 uM after 48 hrs by sulforhodamine B assay; conditions: MDA-MB-468, 48 h, values are per cent of control
[15] = test system: U-251; test: Growth inhibition of human U251 cells at 10 uM after 48 hrs by sulforhodamine B assay; conditions: U-251, 48 h, values are per cent of control
[16] = test system: CCRF-CEM; test: Growth inhibition of human CCRF-CEM cells at 10 uM after 48 hrs by sulforhodamine B assay; conditions: values are per cent of control
[17] = Growth inhibition of human MOLT4 cells at 10 uM after 48 hrs by sulforhodamine B assay; conditions: MOLT-4, 48 h, values are per cent of control
[18] = Growth inhibition of human PC3 cells at 10 uM after 48 hrs by sulforhodamine B assay; conditions: PC-3, 48 h, values are per cent of control
[19] = test system: MCF7; test: Growth inhibition of human MCF7 cells at 10 uM after 48 hrs by sulforhodamine B assay; conditions: MCF7, 48 h, values are per cent of control

SMILES | growth, % of control at 10 µM [1] | growth, % of control at 10 µM [2] | growth, % of control at 10 µM [3] | growth, % of control at 10 µM [4] | growth, % of control at 10 µM [5] | growth, % of control at 10 µM [6] | growth, % of control at 10 µM [7] | growth, % of control at 10 µM [8] | growth, % of control at 10 µM [9] | growth, % of control at 10 µM [10] | growth, % of control at 10 µM [11] | growth, % of control at 10 µM [12] | growth, % of control at 10 µM [13] | growth, % of control at 10 µM [14] | growth, % of control at 10 µM [15] | growth, % of control at 10 µM [16] | growth, % of control at 10 µM [17] | growth, % of control at 10 µM [18] | growth, % of control at 10 µM [19]
COc1ccc(/C=C(\C#N)c2ccc3c(c2)OCO3)cc1OC | 72% | 97.6% | 103% | 96.1% | 96.9% | 96.2% | 110% | 118% | 109% | 114% | 105% | 91.8% | 83% | 104% | 102% | 89.4% | 85.2% | 100% | 87.2%
N#C/C(=C\c1cc(Br)cc(Br)c1)c1ccc2c(c1)OCO2 | 62.9% | 104% | 84% | 98.7% | 76.6% | 92.4% | 113% | 100% | 103% | 115% | 109% | 91.4% | 79% | 103% | 99.9% | 75.4% | 66.6% | 89.2% | 82.3%
COc1cc(/C=C(\C#N)c2ccc3c(c2)OCO3)cc(OC)c1 | 64.5% | 92.3% | 95.7% | 100% | 89.4% | 94.6% | – | 97% | 103% | 99.8% | 101% | 86.4% | 82% | 98.7% | 93.7% | 83.4% | 67.2% | 97.3% | 85.5%
COc1ccc(/C=C(\C#N)c2ccc3c(c2)OCO3)c(Cl)c1OC | – | 87.2% | 79.1% | 15.3% | – | 69.2% | – | 106% | 100% | 85% | 89.6% | 64.1% | 51.1% | 48.8% | 95.5% | – | – | – | 71.6%
COc1cc(/C=C(\C#N)c2ccc3c(c2)OCO3)cc(OC)c1OC | 88.6% | 92.2% | 98.9% | 74.7% | 88.5% | 93.8% | – | 97.5% | 108% | 101% | 93.8% | 82.1% | 83.5% | 99.6% | 96.6% | 96.5% | 87.2% | 88.7% | –
N#C/C(=C\c1ccc(Cl)cc1Cl)c1ccc2c(c1)OCO2 | 87.3% | 88% | 76.4% | 50.7% | 84.6% | 76% | 99.9% | 93.8% | 98.4% | 113% | 99.8% | 86.4% | 68.7% | 82.1% | 91.1% | 93.3% | 79.2% | 93.4% | 110%
N#C/C(=C\c1ccc2ccccc2n1)c1ccc2c(c1)OCO2 | 87.1% | 69.7% | 68.3% | 48.3% | 84.9% | 86.8% | 90.2% | – | 63% | 70.8% | 34.7% | 86.1% | 60.5% | 77.8% | 26.7% | 89.7% | 78.5% | 77.5% | 84.6%
COc1ccc(/C(C#N)=C/c2ccc3c(c2)OCO3)cc1 | 66.6% | 86.6% | 79.9% | 77.9% | 64.7% | 63.6% | 93% | – | 88.7% | 86.6% | 49.4% | 74.7% | 39.3% | 48.6% | 80.9% | 72.1% | 70.4% | 81% | 60.8%
N#C/C(=C\c1ccsc1)c1ccc2c(c1)OCO2 | 83.5% | 94.5% | 114% | 107% | 104% | 94.6% | – | 110% | 103% | 101% | 101% | 96.5% | 86.5% | 105% | 93.7% | 104% | 79.7% | 110% | 87.1%
N#C/C(=C\c1ccc(Cl)c(Cl)c1)c1ccc2c(c1)OCO2 | 83.1% | 88% | – | 93.7% | 80.1% | 91.7% | – | 86.3% | 97.7% | 98.9% | 105% | 94.1% | 77.7% | 101% | 86.3% | 91.9% | 72.2% | 91.5% | 79.9%
N#C/C(=C\c1c(Cl)cccc1Cl)c1ccc2c(c1)OCO2 | 75% | 90.6% | 56.1% | 63.5% | 84.4% | 95.2% | – | 99.8% | 97.7% | 111% | 106% | 100% | 77% | 84.9% | 89% | 86.7% | 61.2% | 94.3% | 93.7%
N#C/C(=C\c1cccnc1Cl)c1ccc2c(c1)OCO2 | 83.8% | 103% | 107% | 97.1% | 89.3% | 109% | – | 112% | 115% | 98.9% | 101% | 88.5% | 92.8% | 93.7% | 95.8% | 93.7% | – | 101% | 112%
